Test system: OVCAR-8 complex spheroid, growth inhibition
Assay: Anticancer human tumor OVCAR-8 cell line growth inhibition [Asc];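 further: spheroids exposed to agents for 7 days before readout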;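 on viability, T/C: percent viability relative to DMSO vehicle wells taken as 100%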
Conditions: for IC50: curve of first compound; for viability, T/C: stronger effect = lower value
Description: Multicellular complex tumor spheroid response to apoptosis pathway targeting inhibitors Alrizomadlin, Pelcitoclax, and Dasminapant in combination with a variety of drugs and investigational agents in selected tumor cell lines
The MDM2 inhibitor alrizomadlin, the Bcl-2/Bcl-xL inhibitor pelcitoclax, and the IAPs inhibitor dasminapant were evaluated both individually and in combination with standard of care and investigational anticancer small molecules within a complex spheroid model of solid tumors. . Complex spheroids include a stromal component modeled by human endothelial cells (HUVEC) and fibroblasts modeled by human mesenchymal stem cells (MSCs). The concentration ranges selected for each drug and investigational agent were based upon clinically achievable concentrations if the clinical Cmax of the agent was known.
Compounds. The drugs and investigational agents: alrizomadlin (APG-115; NSC831270), pelcitoclax (APG-1252; NSC835773), dasminapant (APG-1387;NSC834197), TAK-243 (NSC785004), copanlisib (NSC809693), olaparib (NSC753686), talazoparib (NSC767125), cobimetinib (NSC 768068), eltanexor (KPT-8602, NSC 794443), abemaciclib (NSC 768073), sotorasib (NSC818433), adagrasib (NSC 831453), MRTX-1133 (NSC 836407), Iadademestat (ORY1001, NSC 806812), and RMC-4630 (NSC839698), were obtained from the NCI Developmental Therapeutics Program Chemical Repository. The FDA-approved anticancer drug set is available from the Developmental Therapeutics Program at https://dtp.cancer.gov/organization/dscb/obtaining/available plates.htm. […] The stock solutions were prepared in dimethyl sulfoxide (DMSO, Sigma-Aldrich, St. Louis, MO, cat. D2650) at 800-fold the tested concentration and stored at -70 degrees C prior to their use. All drugs and investigational agents were tested over a range starting from a high concentration at or near the clinical Cmax and decreasing in half-log increments. If the clinical Cmax for an agent had not been determined, the highest concentration tested was 10 microM.
The patient-derived cancer (PDC) cell lines include five colon adenocarcinomas: 186277-243-T-J2-PDC, 616215-338-R-J1-PDC, 439559-082-T-J2-PDC, 463943-066-T-J2-PDC, and 519858-162-T-J1-PDC; three pancreatic carcinomas: 323965-272-R-J2-PDC, 521955-158-R6-J3-PDC, and 521955-158-R2-J5-PDC; two uterine sarcomas: 327498-152-R-J2-PDC and 993429-296-R-J1-PDC; two rhabdomyosarcomas: 755483-174-R-J1-PDC and 772245-204-R-J1-PDC; two soft tissue sarcomas: 126254-015-R-J1-PDC and 494315-158-R-J1-PDC; two malignant fibrous histiocytomas: 317291-083-R-J1-PDC and 596521-263-R-J1-PDC; two breast carcinomas: 171881-019-R-J1-PDC and 885512-296-R-J2-PDC; and one ovarian carcinoma: 6556581-035-R-J-PDC were obtained from the NCI PDMR, (https://pdmr.cancer.gov). The established cell lines HSSY-2 synovial sarcoma (RRID:CVCL 8719), SYO-1 synovial sarcoma (RRID:CVCL_7146), MPNST malignant peripheral neural sheath tumor were obtained from the Sloan Kettering Institute. The following established cell lines were purchased from the American Type Culture Collection (ATCC, Manassas, VA), Sor the received from the NCI repository:, PANC-1 pancreatic carcinoma (CRL-1469, RRID:CVCL_0480), OVCAR-5 ovarian carcinoma (RRID:CVCL_1628), OVCAR-8 ovarian carcinoma (RRID:CVCL_1629), , MCF-7 breast carcinoma (CRL-12584, RRID:CVCL_0031), MDA-MB-231 breast carcinoma (CRL-12532, RRID:CVCL_0062), NCI-H1876 small cell lung carcinoma (CRL-5902, RRID:CVCL_1503), NCI-H510A small cell lung carcinoma (HTB-184, RRID:CVCL_1565), NCI-H1417 (CRL-5869, RRID:CVCL_1469), and NCI-H196 small cell lung carcinoma (CRL-5823, RRID:CVCL_1509). Dr. Peter Houghton (Greehey Children's Cancer Research Institute, University of Texas Health Science Center, San Antonio, TX) provided Rh-18 rhabdomyosarcoma (RRID:CVCL_1659). Pooled donor human umbilical vein endothelial cells (HUVEC, Lonza, cat. CC-2519) and human mesenchymal stem cells (hMSC, Lonza, cat. PT-2501) were purchased from Lonza (Walkersville, MD).
Cell Culture. […]

[1] = second compound 0.00949 µM, first compound 0.0316 µM
[2] = second compound 0.00949 µM, first compound 0.1 µM
[3] = second compound 0.03 µM, first compound 0.0316 µM
[4] = second compound 0.03 µM, first compound 0.1 µM
[5] = second compound 0.0949 µM, first compound 0.0316 µM
[6] = second compound 0.0949 µM, first compound 0.1 µM
[7] = second compound 0.3 µM, first compound 0.0316 µM
[8] = second compound 0.3 µM, first compound 0.1 µM
[9] = second compound 0.949 µM, first compound 0.0316 µM
[10] = second compound 0.949 µM, first compound 0.1 µM
[11] = second compound 3 µM, first compound 0.0316 µM
[12] = second compound 3 µM, first compound 0.1 µM

SMILES: Cn1ncnc1[C@H]1c2n[nH]c(=O)c3cc(F)cc(c23)N[C@@H]1c1ccc(F)cc1 + CCN1C(C(=O)NC23CCC(C(=O)O)(CC2)CC3)C(c2cccc(Cl)c2F)C2(C(=O)Nc3cc(Cl)ccc32)C12CCCCC2
- IC50 (second compound 0.00949 µM): > 0.1 µM
- IC50 (second compound 0.03 µM): > 0.1 µM
- IC50 (second compound 0.0949 µM): > 0.1 µM
- IC50 (second compound 0.3 µM): > 0.1 µM
- IC50 (second compound 0.949 µM): > 0.1 µM
- IC50 (second compound 3 µM): > 0.1 µM
- viability, T/C (second compound 0.00949 µM, first compound 0.000316 µM): 90.7%
- viability, T/C (second compound 0.00949 µM, first compound 0.001 µM): 82.6%
- viability, T/C (second compound 0.00949 µM, first compound 0.00316 µM): 105%
- viability, T/C (second compound 0.00949 µM, first compound 0.01 µM): 111%
- viability, T/C [1]: 105%
- viability, T/C [2]: 128%
- viability, T/C (second compound 0.03 µM, first compound 0.000316 µM): 96%
- viability, T/C (second compound 0.03 µM, first compound 0.001 µM): 94.3%
- viability, T/C (second compound 0.03 µM, first compound 0.00316 µM): 104%
- viability, T/C (second compound 0.03 µM, first compound 0.01 µM): 109%
- viability, T/C [3]: 107%
- viability, T/C [4]: 126%
- viability, T/C (second compound 0.0949 µM, first compound 0.000316 µM): 89.8%
- viability, T/C (second compound 0.0949 µM, first compound 0.001 µM): 93.7%
- viability, T/C (second compound 0.0949 µM, first compound 0.00316 µM): 110%
- viability, T/C (second compound 0.0949 µM, first compound 0.01 µM): 95.5%
- viability, T/C [5]: 127%
- viability, T/C [6]: 101%
- viability, T/C (second compound 0.3 µM, first compound 0.000316 µM): 87.8%
- viability, T/C (second compound 0.3 µM, first compound 0.001 µM): 110%
- viability, T/C (second compound 0.3 µM, first compound 0.00316 µM): 97.7%
- viability, T/C (second compound 0.3 µM, first compound 0.01 µM): 97%
- viability, T/C [7]: 106%
- viability, T/C [8]: 123%
- viability, T/C (second compound 0.949 µM, first compound 0.000316 µM): 111%
- viability, T/C (second compound 0.949 µM, first compound 0.001 µM): 92%
- viability, T/C (second compound 0.949 µM, first compound 0.00316 µM): 95.3%
- viability, T/C (second compound 0.949 µM, first compound 0.01 µM): 97.1%
- viability, T/C [9]: 109%
- viability, T/C [10]: 126%
- viability, T/C (second compound 3 µM, first compound 0.000316 µM): 98.6%
- viability, T/C (second compound 3 µM, first compound 0.001 µM): 94.3%
- viability, T/C (second compound 3 µM, first compound 0.00316 µM): 104%
- viability, T/C (second compound 3 µM, first compound 0.01 µM): 117%
- viability, T/C [11]: 115%
- viability, T/C [12]: 139%

SMILES: O=C(c1cc(Cc2n[nH]c(=O)c3ccccc23)ccc1F)N1CCN(C(=O)C2CC2)CC1 + CCN1C(C(=O)NC23CCC(C(=O)O)(CC2)CC3)C(c2cccc(Cl)c2F)C2(C(=O)Nc3cc(Cl)ccc32)C12CCCCC2
- IC50 (second compound 0.00949 µM): > 10 µM
- IC50 (second compound 0.03 µM): > 10 µM
- IC50 (second compound 0.0949 µM): > 10 µM
- IC50 (second compound 0.3 µM): > 10 µM
- IC50 (second compound 0.949 µM): > 10 µM
- IC50 (second compound 3 µM): > 10 µM
- viability, T/C [1]: 99.8%
- viability, T/C [2]: 86%
- viability, T/C (second compound 0.00949 µM, first compound 0.316 µM): 85.7%
- viability, T/C (second compound 0.00949 µM, first compound 1 µM): 98.2%
- viability, T/C (second compound 0.00949 µM, first compound 3.16 µM): 97.8%
- viability, T/C (second compound 0.00949 µM, first compound 10 µM): 102%
- viability, T/C [3]: 93.2%
- viability, T/C [4]: 94%
- viability, T/C (second compound 0.03 µM, first compound 0.316 µM): 87.5%
- viability, T/C (second compound 0.03 µM, first compound 1 µM): 100%
- viability, T/C (second compound 0.03 µM, first compound 3.16 µM): 119%
- viability, T/C (second compound 0.03 µM, first compound 10 µM): 102%
- viability, T/C [5]: 101%
- viability, T/C [6]: 91.7%
- viability, T/C (second compound 0.0949 µM, first compound 0.316 µM): 94.2%
- viability, T/C (second compound 0.0949 µM, first compound 1 µM): 87.6%
- viability, T/C (second compound 0.0949 µM, first compound 3.16 µM): 120%
- viability, T/C (second compound 0.0949 µM, first compound 10 µM): 115%
- viability, T/C [7]: 85.2%
- viability, T/C [8]: 85.9%
- viability, T/C (second compound 0.3 µM, first compound 0.316 µM): 93.3%
- viability, T/C (second compound 0.3 µM, first compound 1 µM): 91.4%
- viability, T/C (second compound 0.3 µM, first compound 3.16 µM): 103%
- viability, T/C (second compound 0.3 µM, first compound 10 µM): 120%
- viability, T/C [9]: 99.6%
- viability, T/C [10]: 108%
- viability, T/C (second compound 0.949 µM, first compound 0.316 µM): 105%
- viability, T/C (second compound 0.949 µM, first compound 1 µM): 95.5%
- viability, T/C (second compound 0.949 µM, first compound 3.16 µM): 96.3%
- viability, T/C (second compound 0.949 µM, first compound 10 µM): 114%
- viability, T/C [11]: 115%
- viability, T/C [12]: 104%
- viability, T/C (second compound 3 µM, first compound 0.316 µM): 114%
- viability, T/C (second compound 3 µM, first compound 1 µM): 103%
- viability, T/C (second compound 3 µM, first compound 3.16 µM): 125%
- viability, T/C (second compound 3 µM, first compound 10 µM): 107%

Source: PubChem BioAssay AID1963437 (Molecular Pharmacology Branch, DTP, NCI, 2024)
